The results in this text go back to patent publication US8859599B2, “Androgen receptor modulating compounds, preparation and uses thereof” (priority 2009, dated 2014).

The structures appear in SMILES notation. Read-outs that look alike come from different tables or passages of the source.

As usually defined, the GI50 is the concentration that inhibits growth by half.

For data set [1], the target named is T1, human androgen receptor (hAR) (Homo sapiens, UniProt P10275).
T1 construct: The cDNA coding hAR was cloned into the pSG5 expression vector as reported previously; expressed in transfected cells; host or cells: Cos-7 cells transiently transfected with pSG5-hAR
T1 sequence (P10275 1-920): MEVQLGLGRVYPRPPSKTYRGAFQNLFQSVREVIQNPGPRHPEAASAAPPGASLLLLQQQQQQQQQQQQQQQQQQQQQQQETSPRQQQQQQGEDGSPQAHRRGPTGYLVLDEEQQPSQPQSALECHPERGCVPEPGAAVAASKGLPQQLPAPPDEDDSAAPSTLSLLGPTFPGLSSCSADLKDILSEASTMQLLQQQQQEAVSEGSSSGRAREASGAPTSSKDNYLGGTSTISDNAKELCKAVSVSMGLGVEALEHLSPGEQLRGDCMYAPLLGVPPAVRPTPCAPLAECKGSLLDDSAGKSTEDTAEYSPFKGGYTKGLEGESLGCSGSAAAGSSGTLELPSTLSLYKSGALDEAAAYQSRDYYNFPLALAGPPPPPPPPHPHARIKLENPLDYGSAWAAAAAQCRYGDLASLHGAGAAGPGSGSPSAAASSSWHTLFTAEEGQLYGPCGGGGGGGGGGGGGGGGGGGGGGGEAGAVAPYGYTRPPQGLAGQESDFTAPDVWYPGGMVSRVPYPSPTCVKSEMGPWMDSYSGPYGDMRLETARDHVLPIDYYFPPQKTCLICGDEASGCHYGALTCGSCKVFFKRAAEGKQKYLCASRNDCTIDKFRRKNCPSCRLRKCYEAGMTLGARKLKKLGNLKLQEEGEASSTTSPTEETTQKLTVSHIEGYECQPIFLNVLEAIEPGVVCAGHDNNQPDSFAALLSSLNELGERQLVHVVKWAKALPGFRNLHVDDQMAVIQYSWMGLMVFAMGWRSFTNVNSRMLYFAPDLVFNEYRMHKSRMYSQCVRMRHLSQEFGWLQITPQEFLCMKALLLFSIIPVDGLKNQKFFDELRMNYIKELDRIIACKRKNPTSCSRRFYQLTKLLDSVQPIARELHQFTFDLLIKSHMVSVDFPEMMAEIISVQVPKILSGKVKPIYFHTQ
The data set can be described thus: hAR transactivation assay (ARE-luciferase reporter) in Cos-7 cells. It counts as cell-based. Particulars: for inhibition of androgen-induced transcriptional activation (antagonistic activity): cells challenged with 10 nM R1881, compound at 10 μM. How it is done: The cDNA coding hAR was cloned into the pSG5 expression vector as reported previously [Chang, C. S., et al., Science (1988)240:324-326]. The 3416 construct (ARE-Luc), containing four copies of the wild-type slp-HRE2 (5′-TGGTCAgccAGTTCT-3′) (SEQ ID No. 1) was cloned in the NheI site in pTK-TATA-Luc [Verrijdt, G. et al., J. Biol. Chem. (2000)275:12298-12305].
For androgen-stimulated transcriptional analysis, 32×10^4 Cos-7 cells were plated in phenol red-free DMEM containing 5% charcoal-stripped serum. After 48 h, the cells were transfected by Superfect (Qiagen) with 0.3 μg of 3416-pTK-TATA-Luc construct, together with 1.5 μg of either pSG5-empty plasmid or pSG5-hAR expressing plasmid. After 18 h, transfected cells were stimulated for 24 h with 10 nM of the synthetic androgen, R1881 (from Perkin-Elmer; dissolved in 0.001% ethanol, final concentration), in the absence or presence of the indicated concentrations of synthetic compounds. When indicated, the synthetic compounds were added alone to the cell medium. […] It was dissolved in 0.001% (final concentration) ethanol. Control cells were treated with the vehicle alone. Lysates were prepared and the luciferase activity was measured using a luciferase assay system (Promega). The results were corrected using CH110-expressed beta-galactosidase activity (Amersham Biosciences) and luciferase activity was expressed as fold induction. Results were obtained from two or three different experiments, each performed in duplicate. Mean and SEM are shown.
For orientation: Reporter assays use an easily measured gene product as a stand-in for the process of interest.

For another data set, the system named is LNCaP cells. Nature of the data set: Sulforhodamine B (SRB) in vitro chemosensitivity assay on LNCaP cells. It counts as cell-based. Particulars: for cytostatic effect: suppression of cell growth: highest concentration tested. How it is done: Sulforhodamine B (SRB) assay was used according to the method by Skehan et al. (JNCI, 1990). Briefly, cells were collected by trypsinization, counted and plated at a density of 5,000 cells/well in 96-well flat-bottomed microtiter plates (100 μl of cell suspension/well). In the chemosensitivity assay, experiments were run in octuplicate, and each experiment was repeated three times. The optical density (OD) of cells was determined at a wavelength of 490 nm by a colorimetric plate reader.
Growth inhibition and cytocidal effect of drugs were calculated according to the formula reported by Monks et al. (JNCI, 1991): [(ODtreated−ODzero)/(ODcontrol−ODzero)]×100%, when ODtreated is > to ODzero. If ODtreated is above ODzero, treatment has induced a cytostatic effect, whereas if ODtreated is below ODzero, cell killing has occurred. The ODzero depicts the cell number at the moment of drug addition, the ODcontrol reflects the cell number in untreated wells and the ODtreated reflects the cell number in treated wells on the day of the assay. TUNEL Assay
The authors examined the antitumour activity of the compounds for which the synthesis is described above, in the hormone-sensitive prostate cancer cell line LNCaP. (R)-Bicalutamide and the novel compounds were tested at the increasing concentrations of […]. The highest dose used was chosen on the basis of the clinically achievable peak plasma concentration reported in the literature for bicalutamide (Cockshott I D. Clin Pharmacokinet. 2004; 43 (13) 855-78).
After 144-hr exposure time, the cytotoxic effect of the molecules was calculated according to the method of Monks et al. (Monks A, et al., J. Nat. Cancer Inst. 1991; 83: 757-66).

The next data set deals with LNCaP-AR cells. The data set can be described thus: TUNEL assay of apoptotic cells in LNCaP-AR. The format is cell-based, human. Particulars: 144 h, 20.0 μM.
Setting [2] is: Homo sapiens, LNCaP cells, 144 h exposure, read-out: Growth inhibition (GI50).
Setting [3] is: LNCaP cells, 144 h exposure, n.r. = not reached.
[4] abbreviates: Homo sapiens, LNCaP, 144 h, read-out: Growth inhibition (GI50), LNCaP cells, 144 h exposure.

`N#Cc1ccc(OCC(N)(Cc2ccccc2)C(=O)Nc2ccc(C#N)c(C(F)(F)F)c2)cc1` (stereo in doubt) [(R)-7c]: the “agonistic activity in presence of Casodex” value in data set [1] (Casodex at 10 μM) is “inhibited”. Besides, in data set [1] (range between 10-100 nM), the “increase of transcriptional activity of AR, compound alone” value is “about 15 fold”.

Take `N#Cc1ccc(NC(=O)C(N)(Cc2ccccc2)CS(=O)(=O)c2ccc(F)cc2)cc1C(F)(F)F` (stereo in doubt) [(S)-8]: the “cytocidal effects by 50% (LC50)” value in the data set on LNCaP cells is “n.r”. For the same molecule, the GI50 with LNCaP cells (setting [2]) was 10.4 µM. In addition, in the data set on LNCaP cells (LNCaP cells, 144 h), the “cytostatic effect: suppression of cell growth” value (“cytostatic effect: suppression” below) is listed as “suppress completely the cell growth”.

As for `N#Cc1ccc(NC(=O)C(N)(CS(=O)(=O)c2ccc(F)cc2)c2ccccc2)cc1C(F)(F)F` (stereo in doubt) [(S)-9], in the data set on LNCaP cells (LNCaP cells, 144 h), the “cytostatic effect: suppression” value is listed as “suppress completely the cell growth”. The “cytocidal effects by 50% (LC50)” value with LNCaP cells (setting [3]) is “n.r”. For the same molecule, the GI50 with LNCaP cells (read-out: Growth inhibition (GI50), LNCaP cells, 144 h exposure) came out at 4 µM.

Take `N#Cc1ccc(NC(=O)[C@](N)(Cc2ccccc2)CS(=O)(=O)c2ccc(F)cc2)cc1C(F)(F)F` [(R)-8, (R)-2-amino-2-benzyl-N-(4-cyano-3-(trifluoromethyl)phenyl)-3-(4-fluorophenylsulfonyl)propanamide]: in the data set on LNCaP cells (LNCaP cells, 144 h exposure), the “cytocidal (cell killing) activity” value is given as “cytocidal activity”.

For `N#Cc1ccc(N2C(=O)[C@](Cc3ccccc3)(CS(=O)(=O)c3ccc(F)cc3)NC2=S)cc1C(F)(F)F` [(R)-11], the “cytocidal effects by 50% (LC50)” value in the data set with LNCaP cells was “n.r”. For the same molecule, in the data set on LNCaP cells (setting [2]), the GI50 is 8.5 µM. Besides, the “cytocidal (cell killing) activity” value in the data set on LNCaP cells (LNCaP cells, 144 h exposure) is recorded as “cytocidal activity”. Further, the “agonistic activity, compound alone” value in data set [1] (authors' experimental conditions) is on record as “does not show agonistic activity”. Moreover, the “inhibition of androgen-induced transcriptional activation (antagonistic activity)” value (“inhibition … (antagonistic activity)” below) in data set [1] was “strong inhibition”.

For the molecule `CS(=O)(=O)N[C@@](CS(=O)(=O)c1ccc(F)cc1)(C(=O)Nc1ccc(C#N)c(C(F)(F)F)c1)c1ccccc1` [(R)-12], the “inhibition … (antagonistic activity)” value in data set [1] was “does not interfere”. In data set [1] (range between 10 nM-10 μM), the “agonistic activity, compound alone” value is reported as “does not show agonistic activity”.

As to `N#Cc1ccc(N2C(=O)[C@@](CS(=O)(=O)c3ccc(F)cc3)(c3ccccc3)NC2=S)cc1C(F)(F)F` [(R)-13, (R)-4-(4-((4-fluorophenylsulfonyl)methyl)-5-oxo-4-phenyl-2-thioxoimidazolidin-1-yl)-2-(trifluoromethyl)benzonitrile], in the data set on LNCaP cells, the “cytocidal effects by 50% (LC50)” value was “n.r”. In addition, the GI50 in the data set on LNCaP cells (setting [2]) is 14 µM.

Consider `Cc1ccc(S(=O)(=O)N[C@@](C)(CS(=O)(=O)c2ccc(F)cc2)C(=O)Nc2ccc(C#N)c(C(F)(F)F)c2)cc1` [(R)-26], for which, in the data set on LNCaP cells (setting [4]), the GI50 was 9.3 µM. For the same molecule, the “cytocidal effects by 50% (LC50)” value in the data set with LNCaP cells (setting [3]) was “n.r”. Besides, the “apoptosis induction in the LNCaP derivative cell line versus LNCaP” value in the data set with LNCaP-AR cells is “more active”. The “inhibition … (antagonistic activity)” value in data set [1] is “does not show antagonistic activity”.

On to `C[C@@]1(CS(=O)(=O)c2ccc(F)cc2)NC(=S)N(c2ccc(C#N)c(C(F)(F)F)c2)C1=O` [(R)-27], for which, in the data set on LNCaP cells, the “cytocidal effects by 50% (LC50)” value was “n.r”. For the same molecule, the GI50 in the data set with LNCaP cells (setting [2]) came to 15.2 µM.

Consider `C[C@@]1(CS(=O)(=O)c2ccc(F)cc2)NC(=O)N(c2ccc(C#N)c(C(F)(F)F)c2)C1=O` [(R)-28, (R)-4-(4-((4-fluorophenylsulfonyl)methyl)-4-methyl-2,5-dioxoimidazolidin-1-yl)-2-(trifluoromethyl)benzonitrile], for which the “cytocidal effects by 50% (LC50)” value in the data set with LNCaP cells was “n.r”. Besides, in the data set with LNCaP cells (setting [2]), the GI50 came to 14.9 µM.

With `C[C@]1(CS(=O)(=O)c2ccc(F)cc2)C(=O)N(c2ccc(C#N)c(C(F)(F)F)c2)C(=O)N1S(C)(=O)=O` [(R)-29], in the data set with LNCaP cells, the “cytocidal effects by 50% (LC50)” value was “n.r”. Moreover, the GI50 with LNCaP cells (setting [2]) was found to be 12.3 µM.

`N#Cc1ccc(OC[C@]2(Cc3ccccc3)NC(=O)N(c3ccc(C#N)c(C(F)(F)F)c3)C2=O)cc1` [(S)-14e]: in data set [1] (100 nM), the “increase of transcriptional activity of AR, compound alone” value is given as “about 55 fold”.

Consider `C[C@@](N)(CS(=O)(=O)c1ccc(F)cc1)C(=O)Nc1ccc(C#N)c(C(F)(F)F)c1` [(S)-23], for which the 50% growth inhibitory concentration (GI50) in the data set on LNCaP cells (setting [4]) was found to be 9.4 µM. Also, the “cytocidal effects by 50% (LC50)” value in the data set on LNCaP cells (setting [3]) is “n.r”.

Consider `C[C@]1(CS(=O)(=O)c2ccc(F)cc2)NC(=O)N(c2ccc(C#N)c(C(F)(F)F)c2)C1=O` [(S)-28], for which the “cytocidal effects by 50% (LC50)” value in the data set on LNCaP cells is on record as “n.r”. Also, in the data set with LNCaP cells (setting [2]), the GI50 is 1.8 µM.

Turning to `C[C@@]1(CS(=O)(=O)c2ccc(F)cc2)C(=O)N(c2ccc(C#N)c(C(F)(F)F)c2)C(=O)N1S(C)(=O)=O` [(S)-29], in the data set with LNCaP cells, the “cytocidal effects by 50% (LC50)” value is reported as “n.r”. In the data set on LNCaP cells (setting [2]), the GI50 turned out to be 12.5 µM.

`C[C@@]1(CS(=O)(=O)c2ccc(F)cc2)C(=O)N(c2ccc(C#N)c(C(F)(F)F)c2)C(=S)N1S(C)(=O)=O` [(S)-30]: the “cytocidal effects by 50% (LC50)” value with LNCaP cells is on record as “n.r”. In addition, the “Growth inhibition (GI50)” value in the data set with LNCaP cells (LNCaP cells, 144 h exposure) is “n.r”.

`C[C@]1(CS(=O)(=O)c2ccc(F)cc2)N=C(SS(C)(=O)=O)N(c2ccc(C#N)c(C(F)(F)F)c2)C1=O` [(S)-31]: the “cytocidal effects by 50% (LC50)” value in the data set on LNCaP cells is reported as “n.r”. In the data set with LNCaP cells (LNCaP cells, 144 h exposure), the “Growth inhibition (GI50)” value is reported as “n.r”.

For `N#Cc1ccc(NC(=O)[C@](N)(Cc2ccc(F)cc2)c2ccccc2)cc1C(F)(F)F` [(S)-36], the “cytocidal effects by 50% (LC50)” value with LNCaP cells is given as “n.r”. Further, the concentration for 50% growth inhibition (GI50) in the data set with LNCaP cells (setting [2]) was determined as 4.3 µM. Moreover, the “cytostatic effect: suppression” value in the data set with LNCaP cells (LNCaP cells, 144 h) was “suppress completely the cell growth”.

Take `C[C@]1(O)CC[C@H]2[C@@H]3CCC4=CC(=O)CCC4=C3C=C[C@@]21C` [R1881, methyltrienolone-17β-hydroxy-17-methyl-estra-4,9.11-trien-3-one, reference compound]: in data set [1] (10 nM, Cos-7 cells, ARE-reporter gene), the “increase of AR-mediated transcriptional activation” value is recorded as “about 11 fold”.
